According to US9255279B2, “Anaplastic lymphoma kinase (ALK) as an oncogene capable of transforming normal human cells” (The Trustees of the University of Pennsylvania, priority 2013, dated 2016):

How the values were obtained:
IL-10 = IL-10 assay; format: cell-based, human; conditions: 100 nM; FIG. 3C
Procedure: IL-10 expression was using a Human Cytokine 10-Plex Antibody Bead Kit (Life Technologies) as per manufacturer protocol. Sample acquisition employed a Luminex FlexMAP-3D (Life Technologies), and analyses performed using xPONENT software (version 4.0). A nine-point standard curve at threefold dilutions was employed with the range defined by 80%-120% of expected/observed values. Samples were tested in duplicate and CV was <10%. The results are presented as the decrease in the ALK inhibitor (CEP-28122)-treated cells relative to untreated cells.
Total RNA was extracted (RNeasy kit; Qiagen) and reverse transcribed using High Capacity RNA-to-cDNA kit (ABI). Expression levels of NPM-ALK mRNA were quantified by using an ABI/PRISM 7700 sequence detection system with TaqMan Gene Expression Assay kits (NPM-ALK, Hs03024829; β-actin, Hs9999903) (Life Technologies) and SYBR Green assay (Life Technologies) using primers for IL-10 (5′-AAGGCGCATGTGAACTCC-3′; SEQ ID NO: 1 and 5′-[…]-3′; SEQ ID NO: 2) and for GAPDH (5′-[…]-3′; SEQ ID NO: 3 and 5′-[…]-3′; SEQ ID NO: 4. All assays were performed in duplicate. The fold difference in RNA levels was calculated on the basis of the difference between CT values obtained for control and individual mRNA (ΔCT).

PD-L1 = PD-L1 expression by flow cytometry; format: cell-based, human; conditions: 100 nM; FIG. 3D
Procedure: (§1) The cells were analyzed using FACSCalibur (BD Biosciences) and, for data analysis, CellQuest Pro software version 6.03 (BD Biosciences). For the standard cell-surface staining, 0.5−1.0×10^6 cells were incubated for 20 minutes at 4° C. with 10-20 ul of fluorescein isothiocyanate-conjugated (FITC), phycoerythrin-conjugated (PE), or allophycocyanin-conjugated (APC) standard anti-T- and B-cell antibodies, PD-L1 or isotype control antibody (Bio-Legend, San Diego, Calif.). The intracellular staining was performed by using commercially available fixation and permeabilization reagents (BD Biosciences or Life Technologies, Carlsbad, Calif.). In brief, 0.5−1.0×10^6 washed membrane-stained or unstained cells were fixed for 15 minutes at room temperature with 100 ul of Fix/Per-solution or Fixation medium. After washing the cells were re-suspended in 100 ul of PBS or Permeabilization medium, and incubated for 15 minutes at room temperature with 10-20 ul of PE-labeled ALK or isotype control antibody (BD Biosciences). After additional washing, cells were analyzed by flow cytometry (FACSCalibur; BD Biosciences). Data acquisition and analysis were performed using CellQuest Pro software version 6.03 (BD Biosciences).

NPM-ALK [1] = molecular target: T1, NPM-ALK (Homo sapiens, UniProt Q9UM73); assay: Phosphorylation of ALK and its targets in NPM-ALK-transfected HEK cells; format: cell-based; design: expressed in transfected cells; the other entry of the earlier key: NPM1 (P06748, Nucleophosmin); conditions: higher dose of inhibitor needed, FIG. 10
T1 sequence (Q9UM73 with tags, fused parts or gaps): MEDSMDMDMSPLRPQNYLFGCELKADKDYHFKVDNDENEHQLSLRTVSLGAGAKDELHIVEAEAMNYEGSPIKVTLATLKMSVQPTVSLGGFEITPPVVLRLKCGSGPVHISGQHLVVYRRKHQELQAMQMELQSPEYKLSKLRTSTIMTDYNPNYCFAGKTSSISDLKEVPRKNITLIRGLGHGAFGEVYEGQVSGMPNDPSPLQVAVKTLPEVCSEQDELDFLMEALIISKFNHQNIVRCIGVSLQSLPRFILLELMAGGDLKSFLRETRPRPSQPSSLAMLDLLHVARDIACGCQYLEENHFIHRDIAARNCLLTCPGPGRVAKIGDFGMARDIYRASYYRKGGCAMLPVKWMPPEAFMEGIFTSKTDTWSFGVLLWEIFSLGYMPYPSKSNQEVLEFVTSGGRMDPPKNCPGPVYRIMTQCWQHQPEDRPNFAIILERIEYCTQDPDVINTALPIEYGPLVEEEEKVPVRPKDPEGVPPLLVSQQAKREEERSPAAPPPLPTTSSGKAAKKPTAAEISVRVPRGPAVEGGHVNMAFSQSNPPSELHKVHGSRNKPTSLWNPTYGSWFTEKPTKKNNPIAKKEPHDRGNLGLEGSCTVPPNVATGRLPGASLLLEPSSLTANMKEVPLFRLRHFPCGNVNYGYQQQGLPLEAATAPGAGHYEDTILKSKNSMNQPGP
Procedure: (§2) These experiments were performed using antibodies against phosphorylated (p)-ALK, p-STAT3, p-S6RP, total S6RP (Cell Signaling Technology), total NPM-ALK (Pharmigen, San Diego, Calif.), and total STAT3 and actin (ACTB), both from Santa Cruz Biotechnology (Santa Cruz, Calif.), according to the standard protocols.

CD30 [2] = assay: CD30 expression in ALK-negative T-cell lymphoma line 2A; format: cell-based, human; conditions: ALK-negative T-cell lymphoma cells (2A); FIG. 3B
Procedure: as §1

NPM-ALK [3] = molecular target: T1, NPM-ALK; assay: Western blotting of phosphorylated signaling proteins in NPM-ALK-transformed CD4+ T cells (NA1, NA2) and SUDHL-1; format: cell-based; design: expressed in transfected cells; host or cells: Human CD4+ T cells transduced with a lentiviral vector (lines NA1, NA2); The control line SUDHL-1 expresses NPM-ALK endogenously from the translocation; the other entry of the earlier key: NPM1 (P06748, Nucleophosmin); conditions: NA1, NA2 and control SUDHL-1 cells, 100 nM, FIG. 3A
Procedure: as §2
A mixture of four siRNAs specific for ALK or control siRNAs (all from Dharmacon; Thermo Fisher Scientific, Waltham, Mass.) was introduced into cells using Lipofectamine 2000 as described previously (Marzec et al., 2008, Proc Natl Acad Sci USA 105(52):20852-20857) for SUDHL-1 cells and Nucleofector T-solution (Amaxa; Lonza, Walkersville, Md.) for CD4+ T-cell derived NA1 cells.

CD30 [4] = assay: CD30 expression by flow cytometry in NPM-ALK-transformed CD4+ T cells and ALK+ALCL-derived cells; format: cell-based, human; conditions: 100 nM, FIG. 3B
Procedure: as §1

[5] = tested on: NPM-ALK-transformed CD4+ T cells; assay: Cell growth of NPM-ALK-transformed CD4+ T cells; format: cell-based, human; conditions: FIG. 3E and FIG. 12A
Procedure: The cells suspended at 2×10^4/well were incubated at 37° C. in microtiter plates for up to two days, then incubated with MTT (Promega Madison, […].) for 4 hours. Well contents were solubilized overnight in the medium containing 10% SDS and 0.01M HCL. Absorbance at 570 nm in each well was measured using a Titertek Multiskan reader (Thermo Fisher Scientific).
The assay was performed using a cell-proliferation enzyme linked immunosorbent assay (ELISA; Roche Diagnostics, Indianapolis, Ind.) according to the manufacturer's protocol. In brief, cells were cultured at a concentration of 2×10^4 cells per well for 44 hours and labeled with bromodeoxyuridine for 4 hours. After centrifugation, supernatant removal, and plate drying, the cells were fixed and the DNA was denatured using FixDenat reagent (Roche Diagnostics). The amount of incorporated bromodeoxyuridine was determined by incubation with a specific antibody conjugated with horseradish peroxidase, followed by colorimetric conversion of the substrate and absorbance evaluation in the ELISA plate reader.
For annexin V expression assay, cells were treated with the ALK inhibitor CEP-28122 (100 nmol/L) for 48 hours or with ALK siRNA (100 pmol/L) for 72 hours. […] The stained cells were analyzed by flow cytometry using a FACSCalibur system (BD Biosciences); data acquisition and analysis were performed using Cell-Quest Pro software (BD Biosciences).

COc1c(Nc2ncc(Cl)c(N[C@H]3[C@@H](C(N)=O)[C@@H]4C=C[C@H]3C4)n2)ccc2c1CC[C@@H](N1CCOCC1)CC2 [CEP-28122]
synthesis of IL-10 (IL-10): Suppressive effect
expression of PDL-1 (PD-L1): Suppressive effect
ALK, STAT3 and S6RP phosphorylation (NPM-ALK [1]): suppress
CD30 expression (CD30 [2]): no effect
phosphorylation of cell signaling proteins (ALK, STAT3, S6RP) (NPM-ALK [3]): Suppressive effect
phosphorylation of cell signaling proteins (ALK, STAT3, S6RP) (NPM-ALK [3]; listed as ALK inhibitor): suppression
expression of CD30 (CD30 [4]): Suppressive effect
expression of CD30 (CD30 [4]; listed as ALK inhibitor): diminished
cell growth [5]: dose-dependent inhibition
cell growth ([5]; listed as ALK inhibitor): suppressed
